Experimental data as given in BigSolDB 2.1.

O=C(O)c1ccccc1O
solubility (mole fraction)
Settings | 298.2 K | 308.2 K | 318.2 K | 328.2 K | 338.2 K
in acetone | 0.137 | 0.139 | 0.156 | 0.196 | –
in isopropanol | 0.144 | 0.161 | 0.173 | 0.195 | 0.214
in n-propanol | 0.132 | 0.15 | 0.163 | 0.179 | 0.195
in water | 0.000295 | 0.000355 | 0.000507 | 0.000699 | 0.000944
